Experimental data as given in patent US9399649B2, “Compounds for treating spinal muscular atrophy” (PTC Therapeutics Inc., priority 2012, dated 2016).

Experiments:
Smn protein = Smn protein assay in cultured cells (SMN HTRF); type: cell-based, human; details: SMA patient fibroblast cells (GM03813), 48 hours; for EC1.5x for Smn protein expression: 7-point concentration curve, concentration producing 1.5 times Smn protein vs DMSO vehicle; for maximum fold (Fold) increase of Smn protein: 7-point concentration data, relative to vehicle control
How it was run: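 SMA patient fibroblasts, 5,000 per well in DMEM-10% FBS, exposed 48 h at 37° C. to a 7-point, 3.16-fold compound series in triplicate. RIPA lysates read by SMN HTRF (665/620 nm, overnight at room temperature); ΔF over blank expressed as fold of vehicle.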

[1] = test system: full length SMN2 minigene mRNA containing SMN2 exon 7; assay: SMN2 minigene mRNA splicing RT-qPCR assay in cultured cells; type: cell-based, human; details: Homo sapiens, HEK293-H; HEK293H cells stably transfected with SMN2-A minigene, 24 hours, 7-point concentration curve; concentration giving 1.5-fold full length SMN2 mRNA vs vehicle; read-out: EC1.5x for production of full length SMN2 mRNA
How it was run: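 HEK293H cells stably carrying SMN2-A minigene treated 24 h (37 °C) with compound, 7-point 3.16-fold dilution, duplicates. Multiplex RT-qPCR on lysate with exon 7/luciferase primers and exon 7–8 junction probe (minigene-specific). Full-length transcript normalised to GAPDH by modified ΔΔCt, expressed relative to vehicle-treated cells.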

SMILES	EC1.5x for Smn protein expression (Smn protein)	maximum fold (Fold) increase of Smn protein (Smn protein)	melting point	EC (1.5-fold) [1]
CCCN1CCN(c2ccc3cc(-c4cn5cc(C)nc(C)c5n4)oc(=O)c3c2)C[C@@H]1C [Cpd 137, 3-(6,8-dimethylimidazo[1,2-a]pyrazin-2-yl)-7-[(3S)-3-methyl-4-propylpiperazin-1-yl]-1H-isochromen-1-one]	**** (an EC1.5×≦0.3 nM is indicated by four stars (****))	***** (a fold increase >1.65 is indicated by five stars (*****))	249 to 254 °C	≤ 0.1 µM
Cc1nc(Cl)cn2cc(-c3cc4ccc(N5CCN(C)CC5)cc4c(=O)o3)nc12 [Cpd 100, 3-(6-chloro-8-methylimidazo[1,2-a]pyrazin-2-yl)-7-(4-methylpiperazin-1-yl)-1H-isochromen-1-one]	*** (an EC1.5× between >0.3 nM and ≦1 nM is indicated by three stars (***))	***** (a fold increase >1.65 is indicated by five stars (*****))	291 to 296 °C	≤ 0.1 µM
Cc1cn2cc(-c3cc4ccc(N5CCN(C)CC5)cc4c(=O)o3)cc2c(C)n1 [Cpd 76, 3-(1,3-dimethylpyrrolo[1,2-a]pyrazin-7-yl)-7-(4-methylpiperazin-1-yl)-1H-isochromen-1-one]	** (an EC1.5× between >1 μM, and ≦3 nM is indicated by two stars (**))	*** (a fold increase between >1.35 and ≦1.5 is indicated by three stars (***))	219 to 221 °C	≤ 0.1 µM
COc1ccc(F)cc1-c1cc2ccc(N3CCN[C@@H](C)C3)cc2c(=O)o1 [Cpd 48, 3-(5-fluoro-2-methoxyphenyl)-7-[(3S)-3-methylpiperazin-1-yl]-1H-isochromen-1-one]	–	* (A maximum fold increase of ≦1.2 is indicated by one star (*))	115 to 117 °C	0.3 to 1 µM
O=c1oc(-c2cn3cccc(Cl)c3n2)cc2ccc(N3CCNCC3)cc12 [Cpd 59, 3-(8-chloroimidazo[1,2-a]pyridin-2-yl)-7-(piperazin-1-yl)-1H-isochromen-1-one]	–	** (a fold increase between >1.2 and ≦1.35 is indicated by two stars (**))	343 to 345 °C	1 to 3 µM
CCN1CCN(c2ccc3cc(-c4cn5cc(C)ncc5n4)oc(=O)c3c2)C[C@H]1C [Cpd 126, 7-[(3R)-4-ethyl-3-methylpiperazin-1-yl]-3-(6-methylimidazo[1,2-a]pyrazin-2-yl)-1H-isochromen-1-one]	**** (an EC1.5×≦0.3 nM is indicated by four stars (****))	**** (a fold increase between >1.5 and ≦1.65 is indicated by four stars (****))	238 to 241 °C	≤ 0.1 µM
C[C@@H]1CN(c2ccc3cc(-c4ccccn4)oc(=O)c3c2)C[C@H](C)N1 [Cpd 5, 7-[(3R,5S)-3,5-dimethylpiperazin-1-yl]-3-(pyridin-2-yl)-1H-isochromen-1-one]	–	* (A maximum fold increase of ≦1.2 is indicated by one star (*))	168 to 170 °C	1 to 3 µM
COc1cccc(-c2cc3ccc(N4C[C@@H](C)N[C@@H](C)C4)cc3c(=O)o2)c1 [Cpd 20, 7-[(3R,5S)-3,5-dimethylpiperazin-1-yl]-3-(3-methoxyphenyl)-1H-isochromen-1-one]	–	* (A maximum fold increase of ≦1.2 is indicated by one star (*))	195 to 197 °C	3 to 30 µM
CCc1nc(C)cn2cc(-c3cc4ccc(N5C[C@@H](C)N(C)[C@@H](C)C5)cc4c(=O)o3)nc12 [Cpd 158, 3-(8-ethyl-6-methylimidazo[1,2-a]pyrazin-2-yl)-7-[(3R,5S)-3,4,5-trimethylpiperazin-1-yl]-1H-isochromen-1-one]	**** (an EC1.5×≦0.3 nM is indicated by four stars (****))	***** (a fold increase >1.65 is indicated by five stars (*****))	235 to 238 °C	≤ 0.1 µM
Cn1cc2cc(-c3cc4ccc(N5CCNCC5)cc4c(=O)o3)ccc2n1 [Cpd 156, 3-(2-methyl-2H-indazol-5-yl)-7-(piperazin-1-yl)-1H-isochromen-1-one]	**** (an EC1.5×≦0.3 nM is indicated by four stars (****))	***** (a fold increase >1.65 is indicated by five stars (*****))	268 to 270 °C	≤ 0.1 µM
Cc1cn2cc(-c3cc4ccc(N5CCN[C@@H](C)C5)cc4c(=O)o3)nc2c(C)n1 [Cpd 63, 3-(6,8-dimethylimidazo[1,2-a]pyrazin-2-yl)-7-[(3S)-3-methylpiperazin-1-yl]-1H-isochromen-1-one]	**** (an EC1.5×≦0.3 nM is indicated by four stars (****))	***** (a fold increase >1.65 is indicated by five stars (*****))	325 to 327 °C	≤ 0.1 µM
C[C@H]1CN(c2ccc3cc(-c4nc5ccccc5s4)oc(=O)c3c2)CCN1 [Cpd 36, 3-(1,3-benzothiazol-2-yl)-7-[(3S)-3-methylpiperazin-1-yl]-1H-isochromen-1-one]	–	* (A maximum fold increase of ≦1.2 is indicated by one star (*))	236 to 238 °C	3 to 30 µM
Cc1cn2cc(-c3cc4ccc(N5CCN(C)CC5)cc4c(=O)o3)nc2cn1 [Cpd 122, 3-(6-methylimidazo[1,2-a]pyrazin-2-yl)-7-(4-methylpiperazin-1-yl)-1H-isochromen-1-one]	**** (an EC1.5×≦0.3 nM is indicated by four stars (****))	***** (a fold increase >1.65 is indicated by five stars (*****))	279 to 285 °C	≤ 0.1 µM
CCc1nc(C)cn2cc(-c3cc4ccc(N5CCN(C)CC5)cc4c(=O)o3)nc12 [Cpd 151, 3-(8-ethyl-6-methylimidazo[1,2-a]pyrazin-2-yl)-7-(4-methylpiperazin-1-yl)-1H-isochromen-1-one]	**** (an EC1.5×≦0.3 nM is indicated by four stars (****))	***** (a fold increase >1.65 is indicated by five stars (*****))	229 to 234 °C	≤ 0.1 µM
C[C@H]1CN(c2ccc3cc(-c4ccc5c(c4)OCO5)oc(=O)c3c2)CCN1 [Cpd 40, 3-(1,3-benzodioxol-5-yl)-7-[(3S)-3-methylpiperazin-1-yl]-1H-isochromen-1-one]	–	* (A maximum fold increase of ≦1.2 is indicated by one star (*))	248 to 250 °C	0.3 to 1 µM
COc1cccc(-c2cc3ccc(N4CCCNCC4)cc3c(=O)o2)c1 [Cpd 21, 7-(l,4-diazepan-1-yl)-3-(3-methoxyphenyl)-1H-isochromen-1-one]	–	* (A maximum fold increase of ≦1.2 is indicated by one star (*))	148 to 150 °C	3 to 30 µM
C[C@@H]1CN(c2ccc3cc(-c4nc5ccccc5s4)oc(=O)c3c2)C[C@H](C)N1 [Cpd 9, 3-(1,3-benzothiazol-2-yl)-7-[(3R,5S)-3,5-dimethylpiperazin-1-yl]-1H-isochromen-1-one]	–	* (A maximum fold increase of ≦1.2 is indicated by one star (*))	310 to 312 °C	3 to 30 µM
Cc1cn2cc(-c3cc4ccc(N5CCN[C@H](C)C5)cc4c(=O)o3)nc2cn1 [Cpd 125, 3-(6-methylimidazo[1,2-a]pyrazin-2-yl)-7-[(3R)-3-methylpiperazin-1-yl]-1H-isochromen-1-one]	**** (an EC1.5×≦0.3 nM is indicated by four stars (****))	***** (a fold increase >1.65 is indicated by five stars (*****))	219 to 225 °C	≤ 0.1 µM
Cc1cn2cc(-c3cc4ccc(N5CCN(C6CCC6)[C@@H](C)C5)cc4c(=O)o3)nc2c(C)n1 [Cpd 136, 7-[(3S)-4-cyclobutyl-3-methylpiperazin-1-yl]-3-(6,8-dimethylimidazo[1,2-a]pyrazin-2-yl)-1H-isochromen-1-one]	**** (an EC1.5×≦0.3 nM is indicated by four stars (****))	***** (a fold increase >1.65 is indicated by five stars (*****))	277 to 282 °C	≤ 0.1 µM
Cc1cn2cc(-c3cc4ccc(N5CCN[C@H](C)C5)cc4c(=O)o3)nc2c(C)n1 [Cpd 71, 3-(6,8-dimethylimidazo[1,2-a]pyrazin-2-yl)-7-[(3R)-3-methylpiperazin-1-yl]-1H-isochromen-1-one]	**** (an EC1.5×≦0.3 nM is indicated by four stars (****))	***** (a fold increase >1.65 is indicated by five stars (*****))	331 to 333 °C	≤ 0.1 µM
COc1ccc(-c2cc3ccc(N4C[C@@H](C)N[C@@H](C)C4)cc3c(=O)o2)cc1OC [Cpd 17, 3-(3,4-dimethoxyphenyl)-7-[(3R,5S)-3,5-dimethylpiperazin-1-yl]-1H-isochromen-1-one]	–	*** (a fold increase between >1.35 and ≦1.5 is indicated by three stars (***))	309 to 311 °C	0.3 to 1 µM
